Several values for one entry are separate records, joined by “and”; a condition that tells them apart may be missing. Equal entries are not always repeated. Toxic doses and inconclusive results are not listed. How the source made its calls: active means survival T/C of 150% or more; inactive means T/C below 125% in these data.
System: CD2F1 mice, L1210 leukemia ip, survival T/C
Assay: NCI In Vivo Anticancer Drug Screen. Data for tumor model L1210 Leukemia (intraperitoneal) in CD2F1 (CDF1) mice
Settings: higher = longer survival
Outline: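 Compound-dosed mice with transplantable tumor versus matched vehicle controls; endpoint ratio T/C reported.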

[1] = endpoint: mean survival time, dose: 100.0 mg/kg/injection, schedule: Q01DX009 (ip), vehicle: saline with Tween-80
[2] = endpoint: mean survival time, dose: 100.0 mg/kg/injection, schedule: Q04DX003 (ip), vehicle: saline with Tween-80
[3] = endpoint: mean survival time, dose: 200.0 mg/kg/injection, schedule: Q01DX009 (ip), vehicle: saline with Tween-80
[4] = endpoint: mean survival time, dose: 200.0 mg/kg/injection, schedule: Q04DX003 (ip), vehicle: saline with Tween-80
[5] = endpoint: mean survival time, dose: 400.0 mg/kg/injection, schedule: Q01DX009 (ip), vehicle: saline with Tween-80
[6] = endpoint: mean survival time, dose: 400.0 mg/kg/injection, schedule: Q04DX003 (ip), vehicle: saline with Tween-80
[7] = endpoint: mean survival time, dose: 100.0 mg/kg/injection, schedule: Q04DX003 (ip), vehicle: saline
[8] = endpoint: mean survival time, dose: 200.0 mg/kg/injection, schedule: Q04DX003 (ip), vehicle: saline
[9] = endpoint: mean survival time, dose: 400.0 mg/kg/injection, schedule: Q04DX003 (ip), vehicle: saline
[10] = endpoint: mean survival time, dose: 50.0 mg/kg/injection, schedule: Q04DX003 (ip), vehicle: saline with Tween-80
[11] = endpoint: mean survival time, dose: 100.0 mg/kg/injection, schedule: Q01DX009 (ip), vehicle: saline
[12] = endpoint: mean survival time, dose: 200.0 mg/kg/injection, schedule: Q01DX009 (ip), vehicle: saline
[13] = endpoint: mean survival time, dose: 400.0 mg/kg/injection, schedule: Q01DX009 (ip), vehicle: saline
[14] = endpoint: mean survival time, dose: 100.0 mg/kg/injection, schedule: Q01DX009 (ip), vehicle: Klucel (hydroxypropylcellulose) (HPC)
[15] = endpoint: mean survival time, dose: 200.0 mg/kg/injection, schedule: Q01DX009 (ip), vehicle: Klucel (hydroxypropylcellulose) (HPC)
[16] = endpoint: mean survival time, dose: 400.0 mg/kg/injection, schedule: Q01DX009 (ip), vehicle: Klucel (hydroxypropylcellulose) (HPC)
[17] = endpoint: mean survival time, dose: 50.0 mg/kg/injection, schedule: Q01DX009 (ip), vehicle: saline with Tween-80
[18] = endpoint: mean survival time, dose: 25.0 mg/kg/injection, schedule: Q04DX003 (ip), vehicle: saline with Tween-80

Measured: T/C

C[As](C)SCC1OC(n2ncc(=O)[nH]c2=O)C2OC(C)(C)OC12 (stereo not drawn)
inactive: endpoint: median survival time, dose: 12.5 mg/kg/injection, schedule: Q01DX005 (ip), vehicle: distilled water + Tween-80 97 % of control | endpoint: median survival time, dose: 25.0 mg/kg/injection, schedule: Q01DX005 (ip), vehicle: distilled water + Tween-80 105 % of control | endpoint: median survival time, dose: 50.0 mg/kg/injection, schedule: Q01DX005 (ip), vehicle: distilled water + Tween-80 94 % of control | endpoint: median survival time, dose: 100.0 mg/kg/injection, schedule: Q01DX005 (ip), vehicle: distilled water + Tween-80 101 % of control | endpoint: median survival time, dose: 200.0 mg/kg/injection, schedule: Q01DX005 (ip), vehicle: distilled water + Tween-80 101 % of control

COC(=O)c1cc(C)[nH]c(=O)c1C#N
inactive: [1] 100 % of control | [2] 95 % of control | [3] 100 % of control | [4] 98 % of control | [5] 94 % of control | [6] 96 % of control

CCCCCCCCCCCCCCCCCCOCCCCCCCCCCCCCCCCCC
inactive: [1] 102 % of control | [2] 95 % of control | [3] 98 % of control | [4] 88 % of control | [5] 93 % of control | [6] 92 % of control

CCCCCCCCC(=O)N1CCCCC1
inactive: [7] 101 % of control | [8] 102 % of control | [9] 96 % of control

CC(O)CC1CCCC(C)N1 (stereo not drawn)
inactive: [10] 90 % of control and 100 % of control | endpoint: mean survival time, dose: 100.0 mg/kg/injection, schedule: Q01DX001 (ip), vehicle: saline with Tween-80 101 % of control | endpoint: mean survival time, dose: 100.0 mg/kg/injection, schedule: Q04DX002 (ip), vehicle: saline with Tween-80 100 % of control and 106 % of control | [2] 100 % of control and 101 % of control | endpoint: mean survival time, dose: 200.0 mg/kg/injection, schedule: Q01DX001 (ip), vehicle: saline with Tween-80 101 % of control | endpoint: mean survival time, dose: 200.0 mg/kg/injection, schedule: Q04DX002 (ip), vehicle: saline with Tween-80 98 % of control and 100 % of control | [4] 93 % of control and 100 % of control

CCCCC1C/C=C/C=C/C=C/C=C/C(OC2OC(C)C(O)C(N)C2O)CC2OC(O)(CC(O)CC3OC3/C=C/C(=O)O1)CC(O)C2C(=O)O (stereo not drawn)
inactive: endpoint: mean survival time, dose: 3.5 mg/kg/injection, schedule: Q01DX009 (ip), vehicle: saline sonified 104 % of control | endpoint: mean survival time, dose: 3.5 mg/kg/injection, schedule: Q04DX003 (ip), vehicle: saline sonified 91 % of control | endpoint: mean survival time, dose: 7.0 mg/kg/injection, schedule: Q01DX009 (ip), vehicle: saline sonified 101 % of control | endpoint: mean survival time, dose: 7.0 mg/kg/injection, schedule: Q04DX003 (ip), vehicle: saline sonified 93 % of control | endpoint: mean survival time, dose: 14.0 mg/kg/injection, schedule: Q01DX009 (ip), vehicle: saline sonified 87 % of control | endpoint: mean survival time, dose: 14.0 mg/kg/injection, schedule: Q04DX003 (ip), vehicle: saline sonified 91 % of control

C=C1C=C(C)CC(C)(C)C1 (tested in a mixture with another compound)
inactive: [11] 101 % of control | [2] 102 % of control | [12] 101 % of control | [4] 100 % of control | [13] 101 % of control | [6] 102 % of control

O=C(Nc1cc(S(=O)(=O)O)ccc1Oc1ccccc1Cl)Nc1cc(S(=O)(=O)O)ccc1Oc1ccccc1Cl
inactive: [14] 101 % of control | [2] 95 % of control | [15] 98 % of control | [4] 95 % of control | [16] 97 % of control | [6] 98 % of control

[C-]#[O+].[C-]#[O+].[C-]#[O+].[C-]#[O+].[C-]#[O+].[Cr].c1ccc(O[PH+](Oc2ccccc2)Oc2ccccc2)cc1
inactive: [17] 96 % of control | [1] 96 % of control | [3] 91 % of control

CNC1CCC(C(=O)O)CC1 (stereo not drawn)
inactive: [11] 107 % of control | [12] 103 % of control | [13] 96 % of control

CCO/C=C1\SC(=S)N(C)C1=O
inactive: endpoint: mean survival time, dose: 15.0 mg/kg/injection, schedule: Q01DX009 (ip), vehicle: saline with Tween-80 90 % of control | endpoint: mean survival time, dose: 30.0 mg/kg/injection, schedule: Q01DX009 (ip), vehicle: saline with Tween-80 87 % of control | endpoint: mean survival time, dose: 60.0 mg/kg/injection, schedule: Q01DX009 (ip), vehicle: saline with Tween-80 98 % of control

Cc1ccc([N+](=O)[O-])cc1NC(=O)Oc1ccc(Cl)cc1Cl
inactive: [17] 102 % of control | [1] 103 % of control

CC(=O)c1ccccc1C(C)C
inactive: endpoint: mean survival time, dose: 25.0 mg/kg/injection, schedule: Q01DX009 (ip), vehicle: saline with Tween-80 91 % of control | [17] 96 % of control | [1] 94 % of control

CCOC(=O)C1C(=O)N(Cc2ccccc2)C(=O)N1C (stereo not drawn)
inactive: endpoint: mean survival time, dose: 12.5 mg/kg/injection, schedule: Q01DX009 (ip), vehicle: other 98 % of control | endpoint: mean survival time, dose: 25.0 mg/kg/injection, schedule: Q01DX009 (ip), vehicle: other 104 % of control | endpoint: mean survival time, dose: 50.0 mg/kg/injection, schedule: Q01DX009 (ip), vehicle: other 100 % of control | endpoint: mean survival time, dose: 100.0 mg/kg/injection, schedule: Q01DX009 (ip), vehicle: other 100 % of control | endpoint: mean survival time, dose: 200.0 mg/kg/injection, schedule: Q01DX009 (ip), vehicle: other 100 % of control

O/N=C1\CCCC\C1=N/O.O/N=C1\CCCC\C1=N/O.[Pt]
inactive: endpoint: mean survival time, dose: 3.13 mg/kg/injection, schedule: Q04DX003 (ip), vehicle: dextrose 98 % of control | endpoint: mean survival time, dose: 6.25 mg/kg/injection, schedule: Q04DX003 (ip), vehicle: dextrose 98 % of control | endpoint: mean survival time, dose: 12.5 mg/kg/injection, schedule: Q04DX003 (ip), vehicle: dextrose 101 % of control | endpoint: mean survival time, dose: 25.0 mg/kg/injection, schedule: Q04DX003 (ip), vehicle: dextrose 98 % of control | endpoint: mean survival time, dose: 50.0 mg/kg/injection, schedule: Q04DX003 (ip), vehicle: dextrose 97 % of control and 101 % of control | endpoint: mean survival time, dose: 100.0 mg/kg/injection, schedule: Q04DX003 (ip), vehicle: dextrose 93 % of control and 101 % of control | endpoint: mean survival time, dose: 200.0 mg/kg/injection, schedule: Q04DX003 (ip), vehicle: dextrose 96 % of control and 101 % of control | endpoint: mean survival time, dose: 400.0 mg/kg/injection, schedule: Q04DX003 (ip), vehicle: dextrose 101 % of control

O=S(=O)(O)c1ccccc1N=Nc1c(S(=O)(=O)O)cc2cc(S(=O)(=O)O)c(N=Nc3ccccc3S(=O)(=O)O)c(O)c2c1O
inactive: [2] 97 % of control | [4] 100 % of control

Nc1nc(Cl)cc(-c2ccccc2)n1
inactive: [2] 102 % of control | [4] 90 % of control | [6] 90 % of control

O=C(CC(=O)c1ccccc1O)c1ccccc1
inactive: [1] 91 % of control | [3] 88 % of control | [5] 94 % of control

Cc1cc([N+](=O)[O-])ccc1S(=O)(=O)F
inactive: [18] 95 % of control | [10] 98 % of control | [2] 98 % of control

COc1ccc2c(c1)CCC1(C)C2=CC(=O)/C1=C\[O-].COc1ccc2c(c1)CCC1(C)C2=CC(=O)/C1=C\[O-].[Cu+2] (stereo not drawn)
inactive: [18] 96 % of control | [10] 87 % of control | [2] 86 % of control

O=C(Nc1cccc(Cl)c1)c1ccc(C(=O)Nc2cccc(Cl)c2)cc1
inactive: endpoint: mean survival time, dose: 75.0 mg/kg/injection, schedule: Q01DX001 (ip), vehicle: saline 100 % of control | endpoint: mean survival time, dose: 150.0 mg/kg/injection, schedule: Q01DX001 (ip), vehicle: saline 98 % of control | endpoint: mean survival time, dose: 300.0 mg/kg/injection, schedule: Q01DX001 (ip), vehicle: saline 102 % of control

Cc1ccc(S(=O)(=O)N2CCn3ncc(C#N)c32)cc1
inactive: endpoint: mean survival time, dose: 12.5 mg/kg/injection, schedule: Q01DX009 (ip), vehicle: Klucel (hydroxypropylcellulose) (HPC) 98 % of control | endpoint: mean survival time, dose: 25.0 mg/kg/injection, schedule: Q01DX009 (ip), vehicle: Klucel (hydroxypropylcellulose) (HPC) 95 % of control | endpoint: mean survival time, dose: 50.0 mg/kg/injection, schedule: Q01DX009 (ip), vehicle: Klucel (hydroxypropylcellulose) (HPC) 97 % of control | [14] 87 % of control | [15] 89 % of control | [16] 95 % of control

COn1c(-c2ccccc2)nc2c1C(=O)N(C)CN2C
inactive: endpoint: mean survival time, dose: 12.5 mg/kg/injection, schedule: Q01DX005 (ip), vehicle: other 96 % of control | endpoint: mean survival time, dose: 25.0 mg/kg/injection, schedule: Q01DX005 (ip), vehicle: other 96 % of control | endpoint: mean survival time, dose: 50.0 mg/kg/injection, schedule: Q01DX005 (ip), vehicle: other 96 % of control | endpoint: mean survival time, dose: 100.0 mg/kg/injection, schedule: Q01DX005 (ip), vehicle: other 95 % of control | endpoint: mean survival time, dose: 200.0 mg/kg/injection, schedule: Q01DX005 (ip), vehicle: other 96 % of control

CC(=O)NC1CCCC(O)C1 (stereo not drawn)
inactive: [7] 102 % of control | [8] 95 % of control | [9] 101 % of control
